Data reported in publication PMC11941790, “Reactions of Plasmodium falciparum Type II NADH: Ubiquinone Oxidoreductase with Nonphysiological Quinoidal and Nitroaromatic Oxidants” (International Journal of Molecular Sciences, 2025).

Columns and labels:
[1] = target: T1, type II NADH:ubiquinone oxidoreductase (PfNDH2) (Plasmodium falciparum, UniProt Q8I302); assay: steady-state kinetics, competitive inhibition vs NADH; assay type: biochemical
T1 construct: gene PF3D7_0915000; His-tagged PfNDH2 (pET45, E. coli)
T1 sequence (Q8I302 31-533): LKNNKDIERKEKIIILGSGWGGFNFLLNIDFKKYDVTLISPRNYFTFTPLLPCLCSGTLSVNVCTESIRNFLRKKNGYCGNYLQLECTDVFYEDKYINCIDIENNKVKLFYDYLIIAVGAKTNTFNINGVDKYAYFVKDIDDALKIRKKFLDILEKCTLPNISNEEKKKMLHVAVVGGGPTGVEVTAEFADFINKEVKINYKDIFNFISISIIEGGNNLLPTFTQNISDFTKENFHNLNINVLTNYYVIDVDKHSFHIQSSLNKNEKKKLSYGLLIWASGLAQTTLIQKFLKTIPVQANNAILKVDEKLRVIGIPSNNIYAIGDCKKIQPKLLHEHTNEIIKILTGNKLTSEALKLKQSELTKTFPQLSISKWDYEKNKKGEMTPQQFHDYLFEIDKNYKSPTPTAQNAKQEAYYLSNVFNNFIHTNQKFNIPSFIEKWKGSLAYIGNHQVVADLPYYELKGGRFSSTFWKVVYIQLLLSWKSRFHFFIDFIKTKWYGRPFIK

[2] = target: T1, type II NADH:ubiquinone oxidoreductase (PfNDH2); assay: steady-state kinetics, competitive product inhibition vs NADH with naphthazarin as acceptor; assay type: biochemical

Ki [2] | SMILES | Ki [1]
– | Nc1ncnc2c1ncn2[C@@H]1O[C@H](COP(=O)(O)OP(=O)(O)OC[C@H]2OC(O)[C@H](O)[C@@H]2O)[C@@H](O)[C@H]1O (some centres unmarked) [ADP-ribose] | 2.5 ± 0.3 mM
3.7 ± 0.4 mM | NC(=O)c1ccc[n+]([C@@H]2O[C@H](COP(=O)([O-])OP(=O)(O)OC[C@H]3O[C@@H](n4cnc5c(N)ncnc54)[C@H](O)[C@@H]3O)[C@@H](O)[C@H]2O)c1 [NAD^+] | –
